These results are taken from publication PMC9329436, “Optimization of the 4-anilinoquin(az)oline scaffold as epidermal growth factor receptor (EGFR) inhibitors for chordoma utilizing a toxicology profiling assay platform” (Scientific Reports, 2022).

Assay type in all cases: biochemical
Assay [1] has as its target 320 wild-type protein kinases (Homo sapiens, UniProt Q13554). The settings on record: CAMK2B, singlicate. An excerpt:
(§1) Table S4. Profiling of two compounds at two concentrations against 320 wild-type protein kinases; singlicate measurement; Residual activities (% of control).

In assay [2] the target is 320 wild-type protein kinases (Homo sapiens, UniProt P78527). The settings on record: DNA-PK, singlicate.
Source text: as §1

The target of assay [3] is T1, 320 wild-type protein kinases (Homo sapiens, UniProt Q14164).
T1 sequence (Q14164 1-716): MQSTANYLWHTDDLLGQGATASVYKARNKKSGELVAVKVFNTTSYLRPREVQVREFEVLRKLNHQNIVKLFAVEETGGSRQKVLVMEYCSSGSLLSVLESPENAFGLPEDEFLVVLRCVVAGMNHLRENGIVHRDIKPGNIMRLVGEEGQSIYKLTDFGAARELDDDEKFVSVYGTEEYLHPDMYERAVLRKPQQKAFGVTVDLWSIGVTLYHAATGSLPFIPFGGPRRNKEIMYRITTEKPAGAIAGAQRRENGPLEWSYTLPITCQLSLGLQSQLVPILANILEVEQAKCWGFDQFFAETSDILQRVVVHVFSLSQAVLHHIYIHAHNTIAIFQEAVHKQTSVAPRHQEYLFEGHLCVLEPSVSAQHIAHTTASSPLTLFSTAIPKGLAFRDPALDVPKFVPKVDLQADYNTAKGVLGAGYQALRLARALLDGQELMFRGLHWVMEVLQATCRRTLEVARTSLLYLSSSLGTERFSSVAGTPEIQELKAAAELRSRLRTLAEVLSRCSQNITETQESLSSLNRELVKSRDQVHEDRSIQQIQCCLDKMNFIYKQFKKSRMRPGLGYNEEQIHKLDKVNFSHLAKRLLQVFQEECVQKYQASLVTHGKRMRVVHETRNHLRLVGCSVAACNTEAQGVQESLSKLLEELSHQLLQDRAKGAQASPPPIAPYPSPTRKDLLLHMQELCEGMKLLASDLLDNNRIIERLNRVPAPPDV
The settings on record: IKK-epsilon, singlicate.
Source text: as §1

The target of assay [4] is 320 wild-type protein kinases (Homo sapiens, UniProt Q16644). The conditions noted are these: singlicate.
Source text: as §1

In assay [5] the target is 320 wild-type protein kinases (Homo sapiens, UniProt P07947). The settings on record: kinase YES, singlicate.
Source text: as §1

Assay [6] concerns the target T2, 320 wild-type protein kinases (Homo sapiens, UniProt Q96PF2).
T2 sequence (Q96PF2 1-358): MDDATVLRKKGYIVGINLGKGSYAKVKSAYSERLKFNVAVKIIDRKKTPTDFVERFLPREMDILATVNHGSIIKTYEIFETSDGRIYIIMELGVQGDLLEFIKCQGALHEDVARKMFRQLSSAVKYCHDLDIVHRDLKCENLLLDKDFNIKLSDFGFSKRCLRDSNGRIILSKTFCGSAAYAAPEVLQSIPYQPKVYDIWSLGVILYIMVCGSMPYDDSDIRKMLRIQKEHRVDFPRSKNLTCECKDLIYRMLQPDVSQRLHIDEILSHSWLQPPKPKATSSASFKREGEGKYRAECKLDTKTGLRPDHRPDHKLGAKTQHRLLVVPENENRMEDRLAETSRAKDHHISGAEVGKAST
The settings on record: kinase TSK2, singlicate.
Source text: as §1

In assay [7] the target is 320 wild-type protein kinases (Homo sapiens, UniProt Q86Z02). The conditions noted are these: singlicate.
Source text: as §1

In assay [8] the target is 320 wild-type protein kinases (Homo sapiens, UniProt P51812). The settings on record: kinase RPS6KA3, singlicate.
Source text: as §1

Assay [9] deals with T3, 320 wild-type protein kinases (Homo sapiens, UniProt Q9NR20).
T3 sequence (Q9NR20 1-520): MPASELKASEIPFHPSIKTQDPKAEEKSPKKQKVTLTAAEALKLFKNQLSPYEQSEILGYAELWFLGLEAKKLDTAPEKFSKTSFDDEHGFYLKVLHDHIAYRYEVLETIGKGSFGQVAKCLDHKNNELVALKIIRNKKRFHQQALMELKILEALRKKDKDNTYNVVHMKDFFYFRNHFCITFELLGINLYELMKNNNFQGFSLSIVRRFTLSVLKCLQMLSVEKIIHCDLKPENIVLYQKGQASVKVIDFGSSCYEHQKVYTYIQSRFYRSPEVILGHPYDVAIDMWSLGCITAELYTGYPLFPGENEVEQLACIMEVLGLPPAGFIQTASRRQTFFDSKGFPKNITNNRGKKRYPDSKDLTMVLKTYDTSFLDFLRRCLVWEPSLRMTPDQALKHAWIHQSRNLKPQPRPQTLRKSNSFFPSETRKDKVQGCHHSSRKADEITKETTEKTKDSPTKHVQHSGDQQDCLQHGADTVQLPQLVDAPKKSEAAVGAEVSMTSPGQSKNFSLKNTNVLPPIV
The settings on record: singlicate.
Source text: as §1

Assay [10] addresses 320 wild-type protein kinases (Homo sapiens, UniProt O75676). The conditions noted are these: kinase RPS6KA4, singlicate.
Source text: as §1

The target of assay [11] is T4, 320 wild-type protein kinases (Homo sapiens, UniProt Q96KB5).
T4 sequence (Q96KB5 1-322): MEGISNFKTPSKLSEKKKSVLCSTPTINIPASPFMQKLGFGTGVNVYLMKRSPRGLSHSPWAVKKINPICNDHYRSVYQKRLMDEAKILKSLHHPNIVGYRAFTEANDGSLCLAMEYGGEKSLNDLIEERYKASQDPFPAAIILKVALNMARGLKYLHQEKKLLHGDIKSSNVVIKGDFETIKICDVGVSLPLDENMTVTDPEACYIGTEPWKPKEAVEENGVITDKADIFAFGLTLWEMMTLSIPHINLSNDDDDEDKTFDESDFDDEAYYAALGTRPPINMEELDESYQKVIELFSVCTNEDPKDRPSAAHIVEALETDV
The conditions noted are these: PBK, singlicate.
Source text: as §1

Like-named read-outs stand apart in the source and are kept apart here.

320 wild-type protein kinases (Homo sapiens, UniProt P78527), sequence (P78527 whole entry): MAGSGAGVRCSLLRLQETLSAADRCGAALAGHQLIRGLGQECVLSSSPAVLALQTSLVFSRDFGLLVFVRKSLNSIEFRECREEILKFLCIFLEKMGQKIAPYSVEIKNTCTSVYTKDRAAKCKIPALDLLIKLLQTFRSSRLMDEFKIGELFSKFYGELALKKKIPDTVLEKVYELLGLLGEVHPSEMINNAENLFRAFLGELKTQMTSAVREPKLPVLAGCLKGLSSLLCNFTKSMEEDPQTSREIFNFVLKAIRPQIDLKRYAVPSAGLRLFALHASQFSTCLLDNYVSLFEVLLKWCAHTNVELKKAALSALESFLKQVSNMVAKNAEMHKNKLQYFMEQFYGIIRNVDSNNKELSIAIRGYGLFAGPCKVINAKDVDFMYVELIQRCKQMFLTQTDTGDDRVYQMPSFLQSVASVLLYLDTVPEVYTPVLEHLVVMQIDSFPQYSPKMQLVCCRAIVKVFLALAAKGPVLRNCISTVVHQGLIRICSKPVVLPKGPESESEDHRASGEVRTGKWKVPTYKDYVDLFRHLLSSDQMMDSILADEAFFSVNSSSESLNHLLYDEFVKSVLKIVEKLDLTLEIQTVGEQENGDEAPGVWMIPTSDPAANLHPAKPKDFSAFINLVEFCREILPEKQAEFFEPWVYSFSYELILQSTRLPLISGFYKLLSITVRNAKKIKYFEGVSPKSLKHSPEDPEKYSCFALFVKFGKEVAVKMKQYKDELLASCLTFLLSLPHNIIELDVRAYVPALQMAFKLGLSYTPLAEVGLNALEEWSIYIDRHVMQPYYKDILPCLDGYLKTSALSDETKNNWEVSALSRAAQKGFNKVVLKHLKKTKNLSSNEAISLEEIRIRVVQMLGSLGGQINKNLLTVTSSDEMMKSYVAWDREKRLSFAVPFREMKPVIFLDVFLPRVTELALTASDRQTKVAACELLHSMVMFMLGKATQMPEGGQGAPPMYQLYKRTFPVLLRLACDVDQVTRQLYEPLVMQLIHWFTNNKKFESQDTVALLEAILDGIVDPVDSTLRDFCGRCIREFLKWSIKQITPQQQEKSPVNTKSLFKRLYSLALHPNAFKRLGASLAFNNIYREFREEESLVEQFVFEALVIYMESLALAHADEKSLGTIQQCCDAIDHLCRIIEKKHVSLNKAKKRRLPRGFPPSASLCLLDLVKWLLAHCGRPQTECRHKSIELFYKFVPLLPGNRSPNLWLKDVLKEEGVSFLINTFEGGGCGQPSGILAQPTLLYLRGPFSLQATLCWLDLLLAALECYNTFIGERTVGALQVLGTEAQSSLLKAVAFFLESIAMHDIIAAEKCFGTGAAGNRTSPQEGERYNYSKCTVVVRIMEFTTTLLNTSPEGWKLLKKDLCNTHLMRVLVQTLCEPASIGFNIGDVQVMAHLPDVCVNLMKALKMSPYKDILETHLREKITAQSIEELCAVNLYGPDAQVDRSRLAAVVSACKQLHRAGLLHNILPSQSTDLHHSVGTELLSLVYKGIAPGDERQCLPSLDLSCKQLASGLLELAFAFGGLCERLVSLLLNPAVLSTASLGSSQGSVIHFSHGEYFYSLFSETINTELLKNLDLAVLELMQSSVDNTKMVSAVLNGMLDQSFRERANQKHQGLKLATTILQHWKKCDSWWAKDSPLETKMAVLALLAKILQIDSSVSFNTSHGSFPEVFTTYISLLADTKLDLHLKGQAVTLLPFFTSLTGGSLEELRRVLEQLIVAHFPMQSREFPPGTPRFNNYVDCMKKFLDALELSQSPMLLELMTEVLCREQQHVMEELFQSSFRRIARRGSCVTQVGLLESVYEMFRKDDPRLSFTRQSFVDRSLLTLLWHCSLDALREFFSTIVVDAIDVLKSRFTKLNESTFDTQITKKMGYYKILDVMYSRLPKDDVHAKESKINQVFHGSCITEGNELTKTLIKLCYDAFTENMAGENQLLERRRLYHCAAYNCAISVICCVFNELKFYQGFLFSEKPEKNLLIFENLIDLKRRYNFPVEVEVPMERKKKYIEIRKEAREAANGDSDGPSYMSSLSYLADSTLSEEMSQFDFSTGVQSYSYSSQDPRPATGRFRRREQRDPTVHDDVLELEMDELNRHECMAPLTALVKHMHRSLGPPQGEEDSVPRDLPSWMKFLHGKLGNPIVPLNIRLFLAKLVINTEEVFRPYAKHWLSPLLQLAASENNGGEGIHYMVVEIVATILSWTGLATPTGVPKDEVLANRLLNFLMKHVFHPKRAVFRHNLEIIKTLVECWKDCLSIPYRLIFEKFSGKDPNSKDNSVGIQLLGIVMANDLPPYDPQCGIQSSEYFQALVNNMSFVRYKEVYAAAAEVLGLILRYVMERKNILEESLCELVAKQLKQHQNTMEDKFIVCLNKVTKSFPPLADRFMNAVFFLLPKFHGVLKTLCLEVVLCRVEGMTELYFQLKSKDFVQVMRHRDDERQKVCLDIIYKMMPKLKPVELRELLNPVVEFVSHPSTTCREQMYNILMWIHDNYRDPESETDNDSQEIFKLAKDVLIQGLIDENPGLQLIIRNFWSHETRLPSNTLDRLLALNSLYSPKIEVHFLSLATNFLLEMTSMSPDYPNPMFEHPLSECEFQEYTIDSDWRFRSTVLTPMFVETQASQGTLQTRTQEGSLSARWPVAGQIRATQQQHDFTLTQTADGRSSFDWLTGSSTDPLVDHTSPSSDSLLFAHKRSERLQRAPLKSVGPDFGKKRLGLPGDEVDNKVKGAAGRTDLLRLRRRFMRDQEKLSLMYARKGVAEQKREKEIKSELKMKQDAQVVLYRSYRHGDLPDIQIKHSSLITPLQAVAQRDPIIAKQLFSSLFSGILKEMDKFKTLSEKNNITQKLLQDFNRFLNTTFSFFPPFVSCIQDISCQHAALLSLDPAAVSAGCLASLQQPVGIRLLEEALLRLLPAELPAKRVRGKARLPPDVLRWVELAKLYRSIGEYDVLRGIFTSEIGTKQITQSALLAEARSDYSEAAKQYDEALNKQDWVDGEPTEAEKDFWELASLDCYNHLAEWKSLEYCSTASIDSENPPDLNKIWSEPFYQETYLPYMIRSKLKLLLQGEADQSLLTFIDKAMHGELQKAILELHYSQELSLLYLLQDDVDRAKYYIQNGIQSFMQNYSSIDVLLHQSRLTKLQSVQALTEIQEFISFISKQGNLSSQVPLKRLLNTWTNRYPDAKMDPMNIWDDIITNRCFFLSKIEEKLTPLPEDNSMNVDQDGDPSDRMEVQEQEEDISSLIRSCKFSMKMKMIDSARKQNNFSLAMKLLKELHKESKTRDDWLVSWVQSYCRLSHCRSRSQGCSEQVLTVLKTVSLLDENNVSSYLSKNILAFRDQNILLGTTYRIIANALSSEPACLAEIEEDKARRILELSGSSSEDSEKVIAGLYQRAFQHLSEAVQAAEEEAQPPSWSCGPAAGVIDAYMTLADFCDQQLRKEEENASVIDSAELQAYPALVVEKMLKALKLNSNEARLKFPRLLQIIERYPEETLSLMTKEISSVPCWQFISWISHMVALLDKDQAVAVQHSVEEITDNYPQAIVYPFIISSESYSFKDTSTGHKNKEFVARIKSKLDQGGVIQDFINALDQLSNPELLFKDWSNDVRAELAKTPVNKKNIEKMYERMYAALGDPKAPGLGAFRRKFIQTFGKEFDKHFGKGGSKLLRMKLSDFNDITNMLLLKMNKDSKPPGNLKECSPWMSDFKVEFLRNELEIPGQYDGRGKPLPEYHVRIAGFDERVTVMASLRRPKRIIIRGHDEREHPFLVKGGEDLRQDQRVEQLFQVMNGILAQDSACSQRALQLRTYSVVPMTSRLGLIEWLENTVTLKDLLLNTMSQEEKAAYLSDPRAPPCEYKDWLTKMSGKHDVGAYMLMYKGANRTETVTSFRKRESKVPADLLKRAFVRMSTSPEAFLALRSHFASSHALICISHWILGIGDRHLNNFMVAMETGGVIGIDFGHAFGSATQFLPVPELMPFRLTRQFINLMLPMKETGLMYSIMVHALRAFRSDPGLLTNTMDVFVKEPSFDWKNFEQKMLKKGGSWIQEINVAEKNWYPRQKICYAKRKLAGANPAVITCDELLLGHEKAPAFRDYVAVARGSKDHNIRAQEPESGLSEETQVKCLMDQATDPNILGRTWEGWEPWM
320 wild-type protein kinases (Homo sapiens, UniProt P51812), sequence (P51812 whole entry): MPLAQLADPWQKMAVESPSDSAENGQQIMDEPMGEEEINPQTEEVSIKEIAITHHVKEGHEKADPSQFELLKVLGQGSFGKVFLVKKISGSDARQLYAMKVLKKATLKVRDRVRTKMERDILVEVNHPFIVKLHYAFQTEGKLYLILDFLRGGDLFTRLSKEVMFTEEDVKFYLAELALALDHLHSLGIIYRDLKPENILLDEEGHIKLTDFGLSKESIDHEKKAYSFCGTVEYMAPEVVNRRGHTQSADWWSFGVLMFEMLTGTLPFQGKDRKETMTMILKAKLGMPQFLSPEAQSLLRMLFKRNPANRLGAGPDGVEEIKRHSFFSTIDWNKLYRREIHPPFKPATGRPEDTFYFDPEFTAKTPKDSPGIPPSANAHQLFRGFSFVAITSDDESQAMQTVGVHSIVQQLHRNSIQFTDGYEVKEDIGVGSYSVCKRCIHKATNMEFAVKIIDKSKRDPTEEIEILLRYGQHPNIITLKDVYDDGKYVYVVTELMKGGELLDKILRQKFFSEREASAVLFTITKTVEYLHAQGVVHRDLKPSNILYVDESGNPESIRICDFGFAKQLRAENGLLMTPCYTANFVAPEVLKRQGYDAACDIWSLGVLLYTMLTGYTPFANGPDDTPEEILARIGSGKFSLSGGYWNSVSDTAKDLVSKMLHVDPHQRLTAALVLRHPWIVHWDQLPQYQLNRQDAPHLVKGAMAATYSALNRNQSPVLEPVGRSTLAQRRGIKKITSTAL

For `C#Cc1cc(Nc2ncnc3cc(I)ccc23)ccc1Cl` [Compound 41], the Residual activity is reported as 86 % of control in [1] (1.0E-06 M); 84 % of control in assay [1] (1.0E-07 M); 100 % of control in assay [2] (1.0E-06 M); 96 % of control in [2] (1.0E-07 M); 94 % of control in assay [3] (1.0E-06 M); 108 % of control in [3] (1.0E-07 M). The Residual activity is given as 86 % of control in assay [4] (MAPKAPK3, 1.0E-06 M); 99 % of control in assay [4] (MAPKAPK3, 1.0E-07 M); 87 % of control in assay [7] (HIPK1, 1.0E-06 M); 98 % of control in assay [7] (HIPK1, 1.0E-07 M); 96 % of control in assay [9] (DYRK4, 1.0E-06 M); 99 % of control in assay [9] (DYRK4, 1.0E-07 M). Also, the Residual activity in assay [11] (1.0E-06 M) is 110 % of control; in [11] (1.0E-07 M) it was 98 % of control. For the same molecule, the “Residual activity, YES” value in assay [5] (assay conc. 1.0E-06 M) was 83 % of control; in assay [5] (assay conc. 1.0E-07 M) it was 101 % of control. Also, the “Residual activity, TSK2” value in assay [6] (assay conc. 1.0E-06 M) is reported as 123 % of control; in assay [6] (assay conc. 1.0E-07 M) it was 113 % of control. Further, the “Residual activity, RPS6KA3” value in assay [8] (assay conc. 1.0E-06 M) is reported as 96 % of control; in assay [8] (assay conc. 1.0E-07 M), 99 % of control. The “Residual activity, RPS6KA4” value in [10] (assay conc. 1.0E-06 M) is reported as 93 % of control; in assay [10] (assay conc. 1.0E-07 M) it was 95 % of control.
Turning to `C#Cc1cc(Nc2ncnc3cc(OC)c(OC)cc23)ccc1Cl` [Compound 45], the Residual activity in assay [1] (1.0E-06 M) is recorded as 103 % of control; in [1] (1.0E-07 M) it was 81 % of control; in assay [2] (1.0E-06 M) it was 85 % of control; in [2] (1.0E-07 M), 108 % of control; in assay [3] (1.0E-06 M) it was 101 % of control; in assay [3] (1.0E-07 M) it was 108 % of control. For the same molecule, the Residual activity is reported as 87 % of control in assay [4] (MAPKAPK3, 1.0E-06 M); 80 % of control in assay [7] (HIPK1, 1.0E-06 M); 79 % of control in assay [7] (HIPK1, 1.0E-07 M); 97 % of control in [9] (DYRK4, 1.0E-06 M); 116 % of control in assay [9] (DYRK4, 1.0E-07 M); 80 % of control in [11] (1.0E-06 M). Moreover, the Residual activity in assay [11] (1.0E-07 M) is recorded as 91 % of control. The figures for the “Residual activity, YES” value in assay [5] (assay conc. 1.0E-06 M) and in assay [5] (assay conc. 1.0E-07 M) were 77 % of control and 100 % of control, respectively. For the same molecule, the results for the “Residual activity, TSK2” value in [6] (assay conc. 1.0E-06 M) and in assay [6] (assay conc. 1.0E-07 M) were 331 % of control and 109 % of control, respectively. For the same molecule, the figures for the “Residual activity, RPS6KA3” value in assay [8] (assay conc. 1.0E-06 M) and in assay [8] (assay conc. 1.0E-07 M) were 115 % of control and 119 % of control, respectively. In addition, the “Residual activity, RPS6KA4” value in assay [10] (assay conc. 1.0E-06 M) was 83 % of control; in [10] (assay conc. 1.0E-07 M), 95 % of control.
